Marks after values point to notes of the source that are not given here.
Tests used:
[1] = tested on: MPTP-treated cynomolgus monkeys; experiment: motor behaviour rating of MPTP-treated cynomolgus monkeys; type: in vivo; conditions: GM1 15 mg/kg/day i.m.; p<0.05 vs saline solution
Method: In vivo experiments with GM1 were carried out on 15 (male or female) squirrel monkeys and 4 cynomolgus monkeys.
The monkeys were administered MPTP saline solution after being anaesthesized i.m. with ketamine HCl 5 mg/kg, as follows:
0.35 mg/kg/dose, i.v. (cynomolgus monkeys)
MPTP was administered every third day until complete manifestation of parkinsonian motor symptomatology was obtained, i.e. akinesia, lack of responsiveness to stimulation, inability to climb, to feed autonomously, and to groom. Thirty points min. (as will be defined in the explanation of FIG. 1) had to be obtained during the 48-60 hours following the last MPTP administration; then animals in pairs were subdivided at random into two treatment groups, i.e. treatment with GM1 or with saline solution. […]
In particular, the following functions were recorded: overall activity, ability to climb, locomotion/gait, upper and lower limb movements, detailed motor ability, bradykinesia/akinesia, dyskinesia/dystonia, carriage, tremor, balance, grooming ability, sudden immobility during movements, and ability to feed. […]
FIGS. 1 and 2 are now being considered in detail. […] Columns represent the average points (±S.D.); normal point is 0, MPTP points are the points recorded after the last MPTP injection but prior to the administration of associated GM1-saline solution. […]

[2] = tested on: MPTP-treated cynomolgus monkeys; experiment: object grasping test in MPTP-treated cynomolgus monkeys; type: in vivo; conditions: GM1 15 mg/kg/day i.m., investigation end
Method: The behaviour and neurologic functions of cynomolgus monkeys were also tested. Said monkeys were also trained to grasp an object, which has proven to be indicative of the motor and cognitive functions of MPTP-treated monkeys (Taylor J. R. et al., Brain, 113, 617, 1990).
The grasping test was carried out according to Diamond A.: “The development and neural bases of higher cognitive functions”, Annals of the New York Academy of Sciences, vol. 608, A. Diamond Ed. (The New York Academy of Sciences, New York, 637-676, 1990).
Briefly, monkeys were trained to stretch their arm out of their cage to grasp food (raisins or apple) from a Plexiglas box (15 cm×15 cm×5 cm), open on one side and fastened to a platform allowing side movement and rotation.
The box open side could happen to be in front of, on the left or on the right side of the monkey. Each experiment consisted of 30 tests. The following events were recorded: successful arm stretchings (food grasped at the first attempt), correct stretchings (food grasped after various attempts), and “barrier” stretchings (i.e. towards the closed side of the box rather than-around the box until reaching the open side of same). Should no food be grasped within 5 minutes, the test was judged to be without response.
FIG. 2 illustrates the effects produced by MPTP and GM1 on cynomolgus monkeys in the “object grasping” test. […]

[3] = tested on: MPTP-treated squirrel monkeys; experiment: post-mortem striatal dopamine and metabolite levels by HPLC, squirrel monkeys; type: in vivo; conditions: MPTP/GM1, average (S.D.)
Method: (§1) Post-mortem neurochemical examinations of striatal tissue were carried out for the determination of dopamine (DA) and relevant metabolites, e.g. homovanillic acid (HVA), and […] (DOPAC). DA and relevant metabolites striatal levels were quantified by electrochemical […] high pressure liquid chromatography (HPLC) (Schneider J. S., Brain Res., 24, 534, 1990).

[4] = tested on: MPTP-treated cynomolgus monkeys; experiment: post-mortem striatal dopamine and metabolite levels by HPLC, cynomolgus monkeys; type: in vivo; conditions: MPTP/GM1, average (S.D.)
Method: as §1

[5] = tested on: mesencephalic dopaminergic neurons; experiment: TOPA neurotoxicity in mesencephalic dopaminergic neuron cultures, TH immunofluorescence; type: cell-based, rat; conditions: for TH+ cells (% control): counted 24 h later, mean ± S.E.M.
Method: Mesencephalic neuron cultures were prepared according to Dal Toso et al. (Dal Toso et al.: “Development and survival of neurons in dissociated fetal mesencephalic serum-free cell cultures: I. Effects of cell density and of an adult mammalian striatal-derived neuronotrophic factor (SDNF)”, J. Neurosci., 8 (3) 733-745, 1988) from the mesencephalic tegmentum of 14.5-15 days' rat embryos.
Neurons (0.75×10^6) were plated on a poly-L-ornithine substrate in 12-well (25 mm dia. each) clusters.
Cultures were used between the fourth and the sixth day without changing the medium. […]
2-hour pretreatment before acute incubation with TOPA;
cotreatment only with LIGA 20 before acute incubation with TOPA;
pretreatment with/without cotreatment before (100 μM for 2 h) and/or during (100 μM for 24 h) prolonged incubation with TOPA. TOPA cytotoxicity was determined by evaluating cellular survival, and more precisely:
TH immunofluorescence (specific for tyrosine hydroxylase) in mesencephalic dopaminergic neurons, as described by Berger et al. (Berger B. et al.: “Long-term development of mesencephalic dopaminergic neurons of mouse embryos in dissociated primary cultures: morphological and histochemical characteristics”, Neurosci., 7, 193-205, 1982);
Cytotoxicity is expressed as per cent cellular survival.
The results of the two tests (in triplicate) were analysed statistically according to Duncan's test.

monosialoganglioside [GM1] was tested, and the “motor behaviour at the investigation end” value [1] was “almost normal behaviour”, the “object grasping test performance” value [2] was “fulfilled the task almost perfectly” and the DA striatal level ([3]; Dorsolateral caudatum) was 8.6(1.2)* ng/mg protein. For the same substance, the DOPAC striatal level ([3]; Dorsolateral caudatum) was 3.3(0.9)* ng/mg protein, the HVA striatal level ([3]; Dorsolateral caudatum) was 46.2(6.5)* ng/mg protein and the DA striatal level ([3]; Dorsolateral putamen) was 4.2(0.8)* ng/mg protein. For the same substance, the DOPAC striatal level ([3]; Dorsolateral putamen) was 1.3(0.2)* ng/mg protein, the HVA striatal level ([3]; Dorsolateral putamen) was 45.9(6.9)* ng/mg protein and the DA striatal level ([3]; Ventromedial caudatum) was 37.4(4.2)* ng/mg protein. For the same substance, the DOPAC striatal level ([3]; Ventromedial caudatum) was 12.7(3.6)* ng/mg protein, the HVA striatal level ([3]; Ventromedial caudatum) was 56.6(11.9)* ng/mg protein and the DA striatal level ([3]; Ventromedial putamen) was 21.9(6.1)* ng/mg protein. For the same substance, the DOPAC striatal level ([3]; Ventromedial putamen) was 5.9(1.6)* ng/mg protein, the HVA striatal level ([3]; Ventromedial putamen) was 87.5(17.3)* ng/mg protein and the DA striatal level ([4]; Dorsolateral caudatum) was 4.4(0.6)* ng/mg protein. For the same substance, the DOPAC striatal level ([4]; Dorsolateral caudatum) was 2.7(0.3)* ng/mg protein, the HVA striatal level ([4]; Dorsolateral caudatum) was 55.9(12.0)* ng/mg protein and the DA striatal level ([4]; Dorsolateral putamen) was 3.7(0.9) ng/mg protein. For the same substance, the DOPAC striatal level ([4]; Dorsolateral putamen) was 2.1(0.8)* ng/mg protein, the HVA striatal level ([4]; Dorsolateral putamen) was 51.9(9.4)* ng/mg protein and the DA striatal level ([4]; Ventromedial caudatum) was 12.9(2.8)* ng/mg protein. The DOPAC striatal level ([4]; Ventromedial caudatum) was 6.6(0.7)* ng/mg protein, the HVA striatal level ([4]; Ventromedial caudatum) was 60.9(6.9)* ng/mg protein and the DA striatal level ([4]; Ventromedial putamen) was 11.2(4.1)* ng/mg protein. The DOPAC striatal level ([4]; Ventromedial putamen) was 7.1(3.2)* ng/mg protein, the HVA striatal level ([4]; Ventromedial putamen) was 100.3(11.9)* ng/mg protein and the “number of neurons which survived the TOPA-induced toxic insult” value ([5]; 10 μM GM1 with 1 ng/ml BDNF, compared with saturation concentration (50 ng/ml) of BDNF alone) was “not significantly different”. The “No. of TH+ cells” value ([5]; 100 μM compound incubated with TOPA 10 μM for 24 h, average ± S.D., control 244 ± 20) was 187 ± 10 (b), the “TH+ cells (% control)” value ([5]; 200 μM GM1 2 h pretreatment, washed, then 100 μM TOPA for 45 minutes) was 79.1 ± 4.0 % control and the “TH+ cells (% control)” value ([5]; 200 μM GM1 cotreatment with 100 μM TOPA for 45 minutes, no drug 5.2 ± 1.1) was 5.6 ± 0.7 % control. The “effect of association with BDNF in protecting against TOPA-induced neurotoxicity” value ([5]; ganglioside 1-10 μM with BDNF 1 ng/ml) was “synergic effect” and the “neuroprotective activity alone against TOPA-induced neurotoxicity” value ([5]; ganglioside alone at 1-10 μM) was “no neuroprotective activity of their own”.
